Test results published in PubChem BioAssay (NCI).
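Results reflect a 48-hour exposure of cells in 96-well plates to compound at five concentrations. Here, GI50 denotes the concentration required for 50% inhibition of growth. TGI is the concentration that stops growth completely.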

Columns and labels:
Assay in all cases: NCI anticancer screen, dose series, 48 h
SW-620 colon = system: SW-620 colon
A549 NSCLC = system: A549 NSCLC
NCI-H522 lung = system: NCI-H522 lung
NCI/ADR-RES ovarian = system: NCI/ADR-RES ovarian
NCI-H460 lung = system: NCI-H460 lung
NCI-H226 lung = system: NCI-H226 lung
SK-MEL-28 melanoma = system: SK-MEL-28 melanoma
RPMI-8226 leukemia = system: RPMI-8226 leukemia
SN12C renal = system: SN12C renal
TK-10 renal = system: TK-10 renal

SMILES | TGI (SW-620 colon) | TGI (A549 NSCLC) | TGI (NCI-H522 lung) | TGI (NCI/ADR-RES ovarian) | TGI (NCI-H460 lung) | TGI (NCI-H226 lung) | TGI (SK-MEL-28 melanoma) | TGI (RPMI-8226 leukemia) | TGI (SN12C renal) | TGI (TK-10 renal) | GI50 (SW-620 colon) | GI50 (A549 NSCLC) | GI50 (TK-10 renal) | GI50 (NCI-H522 lung) | GI50 (NCI/ADR-RES ovarian) | GI50 (NCI-H226 lung) | GI50 (SK-MEL-28 melanoma) | GI50 (RPMI-8226 leukemia) | GI50 (SN12C renal) | GI50 (NCI-H460 lung)
CC(=O)NC1=C[C@@H]([C@H]2COC(C)(C)O2)OC1=O | > 100 µM | > 100 µM | > 100 µM | > 100 µM | > 100 µM | > 100 µM | > 100 µM | > 100 µM | > 100 µM |  |  |  |  |  |  |  |  |  |  | 
COC(=O)N1CC2C3C4CC(C(c5ccccc5)=C4c4ccccc4)C3C21 (stereo not given) | 40.4 µM | 73.1 µM |  | 35.4 µM | 32.2 µM | 29.6 µM | 35.4 µM | 53.4 µM | 33.1 µM | 30.8 µM |  |  |  |  |  |  |  |  |  | 
O=C(Nc1ccc(-n2ccc3c(NC(=O)c4ccccc4)ncnc32)cc1)Nc1cccc(Cl)c1Cl | 2.36 µM | 2.22 µM | 3.11 µM | 7.29 µM |  | 4.87 µM | 2.45 µM | 2.76 µM | 2.32 µM | 2.34 µM | 0.998 µM | 0.952 µM | 1.01 µM | 0.972 µM | 1.58 µM | 1.07 µM | 0.99 µM | 0.646 µM | 1.08 µM | 
C=C(OC1C(C)=C2C(C1OC(=O)CCCCCCC)C(C)(OC(C)=O)CC(OC(=O)CCC)C1(O)C2OC(=O)C1(C)O)/C(C)=C/C (stereo not given) | 2.05 µM | 6.16 µM | 1.11 µM | 6.51 µM | 0.046 µM | 0.226 µM | 3.97 µM | 0.0256 µM | 1.91 µM |  | < 0.0001 µM | < 0.0001 µM |  |  |  | < 0.0001 µM |  | < 0.0001 µM | 0.0105 µM | < 0.0001 µM
CCOC(=O)CC1(c2cccc3ccccc23)OC(=O)c2ccccc21 (stereo not given) | > 100 µM | > 100 µM | 79.8 µM |  | > 100 µM | > 100 µM | > 100 µM | 64.2 µM | > 100 µM | > 100 µM |  |  |  |  |  |  |  |  |  | 
CC/C=C(\C(=C/CC)[N+](=O)[O-])[N+](=O)[O-] | 32 µM | > 100 µM |  | 52.7 µM | 35.5 µM | > 100 µM | 37.1 µM | 47.6 µM | 35.2 µM | 33.7 µM |  |  |  |  |  |  |  |  |  | 
Nc1nc(N)c2cc(NCc3ccc(Cl)c(Cl)c3)ccc2n1 | 1.59 µM | 1.82 µM | 2.77 µM | 16.6 µM |  | 3.14 µM | 3.15 µM |  | 2.89 µM | 2.93 µM | 0.431 µM | 0.528 µM | 1.59 µM | 1.31 µM | 2.88 µM | 1.53 µM | 1.77 µM |  | 1.5 µM | 
O=C(O)/C(Cc1ccc([N+](=O)[O-])cc1)=N\O | > 100 µM | > 100 µM | > 100 µM | > 100 µM | > 100 µM | > 100 µM | > 100 µM | > 100 µM | > 100 µM | > 100 µM |  |  |  |  |  |  |  |  |  | 
